Experimental data published in PubChem BioAssay (NCI).
Values joined by “and” are separate entries in the source; they are usually repeats but may differ in a detail not shown here. Identical values can stand only once.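 Compound exposure: 48 hours, 5 concentrations, 96-well plates. GI50 = concentration required for 50% inhibition of growth. TGI: concentration producing complete growth inhibition.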

Experiments:
Test in all cases: inhibition of tumour cell growth, NCI panel, 48 h
[1] = test system: CCRF-CEM leukemia
[2] = test system: SN12C renal
[3] = test system: IGROV1 ovarian
[4] = test system: 786-0 renal
[5] = test system: SK-MEL-28 melanoma
[6] = test system: OVCAR-8 ovarian
[7] = test system: NCI-H522 lung
[8] = test system: SW-620 colon
[9] = test system: LOX IMVI melanoma
[10] = test system: PC-3 prostate

CN(C)CC/C(=N\Nc1ccc(Cl)c(Cl)c1)c1ccccc1
TGI [1]: 6.18 µM | TGI [2]: 5.26 µM | TGI [3]: 5.68 µM | TGI [4]: 3.37 µM | TGI [5]: 6.43 µM | TGI [6]: 3.96 µM | TGI [7]: 4.28 µM | TGI [8]: 3.68 µM | TGI [9]: 3.06 µM

NC(CSc1nc2ccccn2c1[N+](=O)[O-])C(=O)O (configuration not stated)
TGI [2]: > 100 µM | TGI [3]: > 100 µM | TGI [10]: > 100 µM | TGI [4]: > 100 µM | TGI [5]: > 100 µM | TGI [6]: > 100 µM | TGI [7]: > 100 µM | TGI [8]: > 100 µM

Cc1ccc2c(Nc3cccc(Cl)c3F)ncc(NC(=O)c3csc4c(N)ncnc34)c2c1
GI50 [1]: 21.2 µM | TGI [1]: > 100 µM | GI50 [2]: > 100 µM | TGI [2]: > 100 µM | GI50 [3]: 0.605 µM | TGI [3]: > 100 µM | GI50 [10]: > 100 µM | TGI [10]: > 100 µM | GI50 [4]: > 100 µM | TGI [4]: > 100 µM | GI50 [6]: > 76.8 µM | TGI [6]: > 100 µM | GI50 [7]: > 100 µM | TGI [7]: > 100 µM | GI50 [8]: 1.21 µM | TGI [8]: > 100 µM | GI50 [9]: 0.0743 µM | TGI [9]: > 100 µM

COc1cc2ccnc(-c3c4ccccc4c(N)c4c(OC)c(OC)ccc34)c2cc1OC
TGI [1]: 14.2 µM | TGI [2]: 14.1 µM | TGI [3]: 14.5 µM | TGI [4]: 11.5 µM | TGI [5]: 6.92 µM | TGI [7]: 15.9 µM | TGI [8]: 13.1 µM | TGI [9]: 3.08 µM

Cc1ccc(S(=O)(=O)SCc2ccccc2CSS(=O)(=O)c2ccc(C)cc2)cc1
TGI [2]: 33.6 µM | TGI [3]: > 100 µM | TGI [4]: 34.4 µM | TGI [5]: 36.6 µM | TGI [6]: 76.5 µM | TGI [7]: 22.8 µM | TGI [8]: 31.8 µM | TGI [9]: 29.4 µM

O=Cc1ccc(Oc2c3ccccc3nc3occc23)cc1
GI50 [1]: 13.8 µM | TGI [1]: 35.4 µM | GI50 [2]: 7.73 µM | TGI [2]: 24.2 µM | GI50 [3]: 24.6 µM | TGI [3]: > 100 µM | GI50 [10]: 19.5 µM | TGI [10]: 58.6 µM | GI50 [4]: 18.7 µM | TGI [4]: 54.5 µM | GI50 [5]: 17.9 µM | TGI [5]: 34.3 µM | GI50 [6]: 18.3 µM | TGI [6]: 66.2 µM | GI50 [7]: 49.5 µM | TGI [7]: > 100 µM

Cc1ccccc1NC(=O)C1C(=O)N(c2ccccc2C)C(=O)/C1=N\N (configuration not stated)
TGI [1]: > 100 µM | TGI [2]: > 100 µM | TGI [3]: > 100 µM | TGI [4]: > 100 µM | TGI [5]: > 100 µM | TGI [6]: > 100 µM | TGI [7]: > 100 µM | TGI [8]: > 100 µM | TGI [9]: > 100 µM

Nc1c(C(=O)c2cccc(C#CCN3CCOCC3)c2)cnn1-c1ccc(F)cc1
GI50 [2]: > 25 µM | TGI [2]: > 25 µM | GI50 [3]: > 17.2 µM | TGI [3]: > 25 µM | GI50 [10]: 15.4 µM | TGI [10]: > 25 µM | GI50 [4]: > 25 µM | TGI [4]: > 25 µM | GI50 [5]: > 25 µM | TGI [5]: > 25 µM | GI50 [6]: > 25 µM | TGI [6]: > 25 µM | GI50 [7]: > 10.9 µM | TGI [7]: > 23.6 µM | GI50 [8]: 9.28 µM | TGI [8]: > 25 µM | GI50 [9]: > 25 µM | TGI [9]: > 25 µM

CCC[CH2][Sn]([CH2]CCC)([O]C(=O)c1cc(OC)c(OC)cc1OC)[O]C(=O)c1cc(OC)c(OC)cc1OC
GI50 [1]: 0.295 µM | TGI [1]: 1.11 µM | GI50 [2]: 1.52 µM | TGI [2]: 3.29 µM | GI50 [3]: 1.43 µM | TGI [3]: 2.96 µM | GI50 [4]: 1.41 µM | TGI [4]: 2.78 µM | GI50 [5]: 0.971 µM | TGI [5]: 2.23 µM | GI50 [6]: 1.48 µM | TGI [6]: 3.03 µM | GI50 [7]: 0.373 µM | TGI [7]: 1.14 µM | GI50 [8]: 1.13 µM | TGI [8]: 2.83 µM | GI50 [9]: 1.04 µM | TGI [9]: 3.34 µM

COc1cc(/C=C/c2ccc(OC(C)=O)cc2)cc(OC)c1OC
TGI [1]: > 100 µM | TGI [2]: > 100 µM | TGI [3]: > 100 µM | TGI [4]: > 100 µM | TGI [5]: > 100 µM | TGI [6]: > 100 µM | TGI [7]: 81.9 µM | TGI [8]: > 100 µM | TGI [9]: 94.1 µM

COc1c(NC(=O)CC(C)=O)[c]([Hg][O]C(C)=O)c(OC)c(Cl)[c]1[Hg][O]C(C)=O
GI50 [1]: 4.8 µM | TGI [1]: 28.5 µM | GI50 [2]: 15.4 µM | TGI [2]: 29.8 µM | GI50 [3]: 11.7 µM | TGI [3]: 28.3 µM | GI50 [4]: 6.47 µM | TGI [4]: 18.8 µM | GI50 [5]: 11.3 µM | TGI [5]: 23.9 µM | GI50 [6]: 17.8 µM | TGI [6]: 36.3 µM | GI50 [7]: 2.07 µM | TGI [7]: 7.04 µM | GI50 [8]: 7.62 µM | TGI [8]: 20.8 µM

CC(=O)C1C(=O)C(=O)N(c2ccccc2N2C(=O)C(=O)C(C(C)=O)C2=O)C1=O (configuration not stated)
TGI [1]: > 100 µM | TGI [2]: > 100 µM | TGI [3]: > 100 µM | TGI [4]: > 100 µM | TGI [5]: > 100 µM | TGI [6]: > 100 µM | TGI [7]: > 100 µM | TGI [8]: > 100 µM | TGI [9]: > 100 µM

O=C1c2cc3c(cc2[C@@H]2[C@H]1c1ccc([N+](=O)[O-])cc1C(=O)N2CCCCl)OCO3
GI50 [2]: < 0.01 µM | GI50 [3]: < 0.01 µM | TGI [3]: > 100 µM | GI50 [10]: < 0.01 µM | TGI [10]: > 44.5 µM | GI50 [4]: < 0.01 µM | TGI [4]: < 0.0135 µM | GI50 [6]: < 0.01 µM | TGI [6]: > 100 µM | GI50 [7]: < 0.01 µM | TGI [7]: 9.64 µM | GI50 [8]: < 0.01 µM | TGI [8]: > 100 µM | GI50 [9]: < 0.01 µM | TGI [9]: < 0.01 µM

N#CCN1CCOCCOCCN(CC#N)CCOCCOCC1
TGI [1]: > 100 µM | TGI [2]: > 100 µM | TGI [3]: > 100 µM | TGI [4]: > 100 µM | TGI [5]: > 100 µM | TGI [6]: > 100 µM | TGI [8]: > 100 µM | TGI [9]: > 100 µM

CC1(C)CC(=O)c2c(ccc(C(=O)C[C@H](N)CO)c2N)O1
TGI [1]: 17.5 µM and > 33.3 µM | TGI [2]: 17.5 µM and > 33.3 µM | GI50 [3]: 3.09 µM | TGI [3]: 17.5 µM | GI50 [10]: 10.6 µM and 5.7 µM | TGI [10]: 17.5 µM and > 33.3 µM | GI50 [4]: > 17.5 µM and 5.1 µM | TGI [4]: > 33.3 µM | TGI [5]: 17.5 µM and > 33.3 µM | GI50 [6]: 5.68 µM and 2.17 µM | TGI [6]: 17.5 µM and > 33.3 µM | GI50 [7]: 2.57 µM and 4.58 µM | TGI [7]: 17.5 µM | GI50 [8]: 0.647 µM and 0.117 µM | TGI [8]: 17.5 µM and > 33.3 µM

O=C(CC(=O)Nc1ccccc1O)Nc1ccccc1O
TGI [1]: > 100 µM | TGI [2]: 33.8 µM | TGI [3]: > 100 µM | TGI [4]: 36 µM | TGI [5]: 27.4 µM | TGI [6]: > 100 µM | TGI [7]: 24.8 µM | TGI [8]: 17.1 µM

CC1=C(C(=O)CC(=O)C(=O)Nc2ccccc2)Sc2ccccc2N1
TGI [1]: > 100 µM | TGI [2]: > 100 µM | TGI [3]: > 100 µM | TGI [4]: > 100 µM | TGI [5]: > 100 µM | TGI [6]: > 100 µM | TGI [7]: > 100 µM | TGI [8]: > 100 µM | TGI [9]: > 100 µM

Cc1ncc(C(=O)Nc2ccc(CN3CCN(C)CC3)c(C(F)(F)F)c2)cc1C#Cc1cnc(N)c2ncccc12
GI50 [1]: 0.558 µM | TGI [1]: > 20.6 µM | GI50 [2]: 0.221 µM | TGI [2]: 1.91 µM | GI50 [10]: 1.22 µM | TGI [10]: 2.8 µM | GI50 [4]: 0.508 µM | TGI [4]: 2.88 µM | GI50 [5]: 0.056 µM | TGI [5]: 1.49 µM | GI50 [6]: 1.1 µM | TGI [6]: 4.86 µM | GI50 [7]: 1.05 µM | TGI [7]: 3.96 µM | GI50 [8]: 0.208 µM | TGI [8]: 2.9 µM
